These results are taken from patent publication US20250034184A1, “QUATERNARY PHOSPHONIUM COMPOUNDS AND USES THEREOF” (Emory University, priority 2021, published 2025).

Series [1] has as its system Escherichia coli (MC4100). In words: microbe, parasite or virus in culture. The series is classed as cell-based.
Series [2] concerns community-acquired methicillin-resistant S. aureus (CA-MRSA; USA 300-0114). The experiment in a line: microbe, parasite or virus in culture. Type of series: cell-based.
Series [3] relates to Enterococcus faecalis (OG1RF). The experiment in a line: microbe, parasite or virus in culture. Type of series: cell-based.
Series [4] relates to hospital-acquired methicillin-resistant S. aureus (HA-MRSA; ATCC 33591). In words: microbe, parasite or virus in culture. Type of series: cell-based.
The subject of series [5] is A. baumannii strain ATCC 19606. Type of series: cell-based, Acinetobacter baumannii.
In series [6] the test system is methicillin-susceptible S. aureus (SH1000). The experiment in a line: microbe, parasite or virus in culture. The series is classed as cell-based.
The test system of series [7] is red blood cell (RBC).
The subject of series [8] is Pseudomonas aeruginosa (PAO1). The experiment in a line: microbe, parasite or virus in culture. Type of series: cell-based.
In series [9] the test system is A. baumannii pan-resistant clinical isolate, MRSN 17493. Type of series: cell-based, Acinetobacter baumannii.
The test system of series [10] is red blood cell (RBC). The experiment in a line: Red blood cell (RBC) lysis (Lysis20). Particulars: RBC lysis as proxy for toxicity.
Setting [11] is: SH1000, […] DMSO carrier at highest test concentration (250 μM).

Like-named read-outs stand apart in the source and are kept apart here. Bounds are passed on as bounds.

As to `CCCCCCCCCCC[n+]1ccc(CCCc2cc[n+](CCCCCCCCCCC)cc2)cc1` [2Pyr-11,11, reference compound], the MIC stood at 2 µM in series [1] (Escherichia coli, read-out: Minimum Inhibitory Concentration E. coli); 2 µM in series [2] (Staphylococcus aureus, read-out: Minimum Inhibitory Concentration CA-MRSA); 8 µM in series [3] (Enterococcus faecalis, read-out: Minimum Inhibitory Concentration E. faecalis); 2 µM in [4] (Staphylococcus aureus, read-out: Minimum Inhibitory Concentration HA-MRSA); 1 µM in series [6] (Staphylococcus aureus, MSSA, read-out: Minimum Inhibitory Concentration MSSA); 16 µM in series [8] (Pseudomonas aeruginosa, PAO1, read-out: Minimum Inhibitory Concentration Pa). The MBEC in series [5] is 1000 µM; in [9], 500 µM. This molecule also had a Lys20 with red blood cell (RBC) [7] of 4 µM.

On to `CCCCCCCCCC[N+](C)(C)CCCCCCCCCC.[Cl-]` [DDAC], for which the MBEC in [5] was 1000 µM; in [9], 500 µM.

On to `CCCCCCCCCCCCCC[P+](CC[P+](CCCCCCCCCCCCCC)(c1ccccc1)c1ccccc1)(CC[P+](CCCCCCCCCCCCCC)(c1ccccc1)c1ccccc1)c1ccccc1` [P2P2P-14,14,14, ((phenyl(tetradecyl)phosphoniodiyl)bis(ethane-2,1-diyl))bis(diphenyl(tetradecyl)phosphonium)], for which the “Minimum Inhibitory Concentration E. coli” value in [1] (MC4100) amounted to 250 µM. The “Minimum Inhibitory Concentration CA-MRSA” value in series [2] (USA 300-0114) amounted to 16 µM. The “Minimum Inhibitory Concentration E. faecalis” value in series [3] (OG1RF) is 250 µM. For the same molecule, the “Minimum Inhibitory Concentration HA-MRSA” value in series [4] (ATCC 33591) stood at 32 µM. Besides, the “Minimum Inhibitory Concentration MSSA” value in [6] (setting [11]) amounted to 16 µM. This molecule came in with a Lys20 in the series on red blood cell (RBC) [10] of 1 µM. Moreover, the “Minimum Inhibitory Concentration Pa” value in series [8] (P. aeruginosa PAO1) was above 250 µM.

Turning to “benzalkonium chloride [BAC, reference compound]”, the “Minimum Inhibitory Concentration E. coli” value in series [1] is 63 µM. Moreover, in [2], the “Minimum Inhibitory Concentration CA-MRSA” value was determined as 4 µM. Further, in series [3], the “Minimum Inhibitory Concentration E. faecalis” value was 250 µM. In [4], the “Minimum Inhibitory Concentration HA-MRSA” value turned out to be 8 µM. The MBEC in [5] and in series [9] was 2000 µM in each case. Moreover, the “Minimum Inhibitory Concentration MSSA” value in [6] was determined as 4 µM. Further, the Lys20 with red blood cell (RBC) [7] stood at 16 µM. Also, the “Minimum Inhibitory Concentration Pa” value in [8] worked out at 250 µM.

Regarding octadecyltriphenylphosphonium [TPP-18], the “Minimum Inhibitory Concentration E. coli” value in series [1] (MC4100) turned out to be 125 µM. The “Minimum Inhibitory Concentration CA-MRSA” value in series [2] (USA 300-0114) was determined as 8 µM. The “Minimum Inhibitory Concentration E. faecalis” value in [3] (OG1RF) came to 16 µM. Also, the “Minimum Inhibitory Concentration HA-MRSA” value in series [4] (ATCC 33591) is 8 µM. Moreover, the “Minimum Inhibitory Concentration MSSA” value in [6] (setting [11]) was determined as 4 µM. In the series with red blood cell (RBC) [10], the Lys20 was 4 µM. In addition, in [8] (P. aeruginosa PAO1), the “Minimum Inhibitory Concentration Pa” value was determined as 125 µM.
